Measurements from patent US7462615B2, “Inhibitors of cysteine proteases, the pharmaceutical compositions thereof and their therapeutic applications” (Hybrigenics SA, priority 2005, dated 2008).

These compounds were tested against T1, USP8 (Homo sapiens, UniProt P40818) (assay: USP8 Activity Assay). Conditions: 400 nM Ub-AMC; 630 pM enzyme; pH8.8; pre-incubated 30 minutes at 25° C., 60 minutes at 37° C.; sigmoidal fit; read-out: USP 8 (Inhibition of cysteine protease activities).
T1 construct: His tag (from vector pFastBac-HT) (N); made in house; host or cells: Sf9 or High Five insect cells (baculovirus)
T1 sequence (P40818 1-1118): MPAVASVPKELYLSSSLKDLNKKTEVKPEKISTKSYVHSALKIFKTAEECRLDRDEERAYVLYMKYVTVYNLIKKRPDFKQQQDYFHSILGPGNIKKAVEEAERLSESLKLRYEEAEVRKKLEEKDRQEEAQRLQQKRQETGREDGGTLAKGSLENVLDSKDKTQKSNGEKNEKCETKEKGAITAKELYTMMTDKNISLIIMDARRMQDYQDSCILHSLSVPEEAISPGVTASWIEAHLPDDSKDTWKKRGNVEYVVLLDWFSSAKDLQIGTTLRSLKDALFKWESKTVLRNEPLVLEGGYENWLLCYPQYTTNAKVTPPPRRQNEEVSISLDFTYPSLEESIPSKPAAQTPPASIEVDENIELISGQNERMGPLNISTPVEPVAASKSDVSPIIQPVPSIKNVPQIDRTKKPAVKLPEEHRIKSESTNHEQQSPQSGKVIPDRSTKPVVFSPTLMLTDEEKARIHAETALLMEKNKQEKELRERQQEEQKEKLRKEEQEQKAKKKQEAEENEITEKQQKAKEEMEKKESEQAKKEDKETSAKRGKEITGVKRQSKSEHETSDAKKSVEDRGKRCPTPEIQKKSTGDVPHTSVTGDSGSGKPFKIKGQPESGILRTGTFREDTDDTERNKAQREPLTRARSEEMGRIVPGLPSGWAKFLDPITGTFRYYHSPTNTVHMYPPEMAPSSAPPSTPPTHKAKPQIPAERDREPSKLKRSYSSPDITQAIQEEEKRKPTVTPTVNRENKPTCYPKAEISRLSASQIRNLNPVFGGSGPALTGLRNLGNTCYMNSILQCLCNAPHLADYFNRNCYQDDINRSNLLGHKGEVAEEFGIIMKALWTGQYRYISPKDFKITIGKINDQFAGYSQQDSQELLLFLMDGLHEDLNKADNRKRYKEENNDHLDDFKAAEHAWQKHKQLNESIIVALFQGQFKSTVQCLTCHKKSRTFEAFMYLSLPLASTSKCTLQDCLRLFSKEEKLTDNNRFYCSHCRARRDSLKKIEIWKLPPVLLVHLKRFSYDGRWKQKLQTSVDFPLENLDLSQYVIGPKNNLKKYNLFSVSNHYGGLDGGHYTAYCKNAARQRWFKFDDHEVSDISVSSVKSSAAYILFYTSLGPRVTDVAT
Format: biochemical
From the text: The cDNA encoding USP8 was obtained by PCR amplification from placenta mRNA. USP8 cDNA was subcloned by PCR into a baculovirus expression vector (pFastBac-HT; Invitrogen). A cDNA encoding a mutated USP8 was generated by mutagenic PCR. The corresponding protein encodes a cysteine to alanine substitution at residue 786. The sequences were ascertained by sequencing of the entire open reading frame. Bacmids encoding USP7 were generated following DH10bac transposition. The corresponding bacmids were transfected into insect cells (Sf9). Viruses were recovered from culture supernatant and amplified twice. Insect cells (Sf9 or High Five; Invitrogen) were infected for 72 hours. Total cell lysates were harvested and lyzed in lysis buffer (Tris HCl 50 mM pH7.6; 0.75% NP40; 500 mM NaCl; 10% glycerol; 1 mM DTT; 10 mM imidazole; Protease Inhibitor Cocktail; AEBSF 20 μg.ml^−1; Aprotinin 10 μg.ml^−1). Proteins were affinity purified on metal affinity resins (Talon Metal affinity resin; BD Biosciences). Bound materials were extensively washed in wash buffer (50 mM Sodium Phosphate pH 7.0; 300 mM NaCl; 10 mM imidazole; 0.5% Triton X-100; 10% glycerol) and eluted from the resin in 250 mM imidazole-containing wash buffer. Proteins were dialyzed in dialysis buffer (Tris HCl pH 7.6 20 mM; NaCl 200 mM; DTT 1 mM; EDTA 1 mM; 10% Glycerol). Proteins purifications were analyzed on 4-12% NuPAGE (Invitrogen).
USP8 was diluted in USP buffer (50 mM Tris HCl; 0.5 mM EDTA; 5 mM DTT; 0.01% Triton X-100; Bovine Serum Albumin 0.05 mg.ml^−1 pH8.8). Compounds stocks (100 mM) were stored at −20° C. in DMSO.
Reactions were performed as duplicates in Black LJL 96 well plates (HE microplates; Molecular Devices; 20 μl final reaction volume). The substrate concentration for USP8 was 400 nM Ub-AMC (Boston Biochem). The concentrations of the enzyme (USP8) in specificity assays was 630 pM. The concentrations were determined in order to perform specificity assays under initial velocities at fixed substrate concentration. Compounds were pre-incubated with enzymes for 30 minutes at 25° C. Reactions were initiated by addition of substrate to the plates containing the enzymes (+/−compounds) diluted in assay buffer. Reactions were incubated for 60 minutes at 37° C. Reactions were stopped by adding acetic acid (100 mM final). Readings were performed on a Pherastar Fluorescent Reader (BMG). λ Emission 380 nm; λ Excitation=460 nm. Data (mean values +/− standard deviation) were analyzed as % of control (no compound) and plotted as percentage versus the Log of the compound concentration using GraphPad (Prism). Data were fitted to a sigmoidal model (variable slope).
“6-(7)-Chloro-1-methyl-2,3,4,10,10a-pentaaza-cyclopenta[b]fluoren-9-one [Example 3/A]” gave an IC50 of 0.301 µM. `Cc1nnc2nc3c(nn12)C(=O)c1ccccc1-3` [Example 1b/A, 1-Methyl-2,3,4,10,10a-pentaaza-cyclopenta[b]fluoren-9-one] showed an IC50 of 0.701 µM. `Nc1nnc2nc3c(nn12)C(=O)c1ccccc1-3` [Example 1c/A, 1-Amino-2,3,4,10,10a-pentaaza-cyclopenta[b]fluoren-9-one] showed an IC50 of 0.84 µM. With `Nc1nnc2nc3c(nn12)-c1ccccc1C3=O` [Example 1c/B, 3-Amino-1,2,3a,4,10-pentaaza-cyclopenta[b]fluoren-9-one] the IC50 was 0.081 µM. With `CCc1nnc2nc3c(nn12)C(=O)c1ccccc1-3` [Example 1d/A, 1-Ethyl-2,3,4,10,10a-pentaaza-cyclopenta[b]fluoren-9-one] the IC50 was 0.537 µM. In the case of `CCCc1nnc2nc3c(nn12)C(=O)c1ccccc1-3` [Example 1e/A, 1-Propyl-2,3,4,10,10a-pentaaza-cyclopenta[b]fluoren-9-one], the IC50 is reported as 0.952 µM. `CCCCc1nnc2nc3c(nn12)C(=O)c1ccccc1-3` [Example 1f/A, 1-Butyl-2,3,4,10,10a-pentaaza-cyclopenta[b]fluoren-9-one] gave an IC50 of 0.83 µM. Work on `CCCCc1nnc2nc3c(nn12)-c1ccccc1C3=O` [Example 1f/B, 3-Butyl-1,2,3a,4,10-pentaaza-cyclopenta[b]fluoren-9-one] yielded an IC50 of 0.151 µM. In the case of `CC(C)Cc1nnc2nc3c(nn12)C(=O)c1ccccc1-3` [Example 1g/A, 1-Isobutyl-2,3,4,10,10a-pentaaza-cyclopenta[b]fluoren-9-one], the IC50 is reported as 0.538 µM. `CC(C)Cc1nnc2nc3c(nn12)-c1ccccc1C3=O` [Example 1g/B, 3-Isobutyl-1,2,3a,4,10-pentaaza-cyclopenta[b]fluoren-9-one] was tested, and the IC50 was 0.167 µM. `O=C1c2ccccc2-c2nc3nnc(CO)n3nc21` [Example 1h/A, 1-Hydroxymethyl-2,3,4,10,10a-pentaaza-cyclopenta[b]fluoren-9-one] was tested, and the IC50 was 0.67 µM. `O=C1c2ccccc2-c2nn3c(CO)nnc3nc21` [Example 1h/B] gave an IC50 of 0.164 µM. `O=C1c2ccccc2-c2nc3nnc(C4CC4)n3nc21` [Example 1j/A, 1-Cyclopropyl-2,3,4,10,10a-pentaaza-cyclopenta[b]fluoren-9-one] was tested, and the IC50 was 2.5 µM. `O=C1c2ccccc2-c2nc3nnc(Cc4ccccc4)n3nc21` [Example 1k/A, 1-Benzyl-2,3,4,10,10a-pentaaza-cyclopenta[b]fluoren-9-one] gave an IC50 of 0.663 µM. Work on `O=C1c2ccccc2-c2nn3c(Cc4ccccc4)nnc3nc21` [Example 1k/B, 3-Benzyl-1,2,3a,4,10-pentaaza-cyclopenta[b]fluoren-9-one] yielded an IC50 of 0.166 µM. For `Cc1nnc2nc3c(nn12)-c1ccc(Cl)cc1C3=O` [Example 3/B, 7-Chloro-3-methyl-1,2,3a, 4,10-pentaaza-cyclopenta[b]fluoren-9-one], the IC50 was 0.119 µM. `Cn1nc2nc3c(nc2n1)-c1ccccc1C3=O` [Example 4a, 2-Methyl-2H-1,2,3,4,10-pentaaza-cyclopenta[b]fluoren-9-one] showed an IC50 of 10 µM. For `O=C1c2ccccc2-c2nc3nn(Cc4ccccc4)nc3nc21` [Example 4b, 2-Benzyl-2H-1,2,3,4,10-pentaaza-cyclopenta[b]fluoren-9-one], the IC50 was 15 µM.
